These results are taken from ChEMBL document CHEMBL1123748, “Opioid agonist and antagonist activities of monofunctional nitrogen mustard analogues of beta-chlornaltrexamine” (1987).

For assay [1], the species on record is Cavia porcellus. The experiment in a line: Antagonist activity was determined by partial agonist activity of morphine in Guinea pig ileum (GPI); irreversible agonist activity. In kind it is functional, organism-based.
The species named for assay [2] is Cavia porcellus. The experiment in a line: Opioid agonist activity was determined as potency ratio relative to morphine in Guinea pig ileum (GPI). The assay is classed as functional.
The species entered for assay [3] is Mus musculus. The experiment in a line: IC50 ratio for leucine-enkephalin rather than DADLE determined in Mouse vas deferens (MVD). The assay is classed as functional.
For assay [4], the species on record is Cavia porcellus. The experiment in a line: Antagonist activity was determined by partial agonist activity of EK in Guinea pig ileum (GPI); irreversible agonist activity. In kind it is functional, organism-based.
The species named for assay [5] is Mus musculus. As to the kind of experiment: Opioid agonist activity was determined in Mouse vas deferens (MVD). The assay is classed as functional.
For assay [6], the species on record is Cavia porcellus. The experiment in a line: Antagonist activity was determined by partial agonist activity of EK in Guinea pig ileum (GPI). The assay is classed as functional.
The species named for assay [7] is Cavia porcellus. The experiment in a line: Antagonist activity was determined by partial agonist activity of morphine in Guinea pig ileum (GPI). In kind it is functional.

As to `CN(CCCl)[C@H]1CC[C@@]2(O)C3Cc4ccc(O)c5c4C2(CCN3CC2CC2)[C@H]1O5` (stereo not given in full), the IC50 ratio result was “irreversible agonist activity” in assay [1], 5 in assay [3] and “irreversible agonist activity” in assay [4]. In assay [2], the Potency ratio is listed as 159. Also, the IC20 in assay [5] is 3 nM.

With `CN(CCCl)[C@@H]1CC[C@@]2(O)C3Cc4ccc(O)c5c4C2(CCN3CC2CC2)[C@H]1O5` (stereo not given in full), the values for the IC50 ratio in assay [6], in assay [3] and in assay [7] were 17.3, 2.9 and 48.8, respectively. For the same compound, the Potency ratio in assay [2] is listed as 5.3. The compound also gave a 20% effect concentration (IC20) in assay [5] of 10 nM.

For orientation: IC20 means the concentration needed for an effect of 20%. A low value points to greater potency.
